# Results from US20070014692A1, “Method and apparatus for measurement of binding between a protein and a nucleotide” (priority 1998, published 2007).
# Target: T1, human estrogen receptor binding to the ERE (estrogen response element from Xenopus Vitellogenen A2 Gene) (Homo sapiens, UniProt P03372)
# T1 construct: ubiquitin (gene fusion); host or cells: Saccharomyces cerevisiae strain AF103, YEpE10 plasmid, CUP1 promoter
# Test: Evanescent fiber optic sensor with ERE fiber: binding of Cy5-tagged hER to estrogen response element in the presence of compound (S/C)
# T1 sequence (P03372 whole entry, the tested form may be a part): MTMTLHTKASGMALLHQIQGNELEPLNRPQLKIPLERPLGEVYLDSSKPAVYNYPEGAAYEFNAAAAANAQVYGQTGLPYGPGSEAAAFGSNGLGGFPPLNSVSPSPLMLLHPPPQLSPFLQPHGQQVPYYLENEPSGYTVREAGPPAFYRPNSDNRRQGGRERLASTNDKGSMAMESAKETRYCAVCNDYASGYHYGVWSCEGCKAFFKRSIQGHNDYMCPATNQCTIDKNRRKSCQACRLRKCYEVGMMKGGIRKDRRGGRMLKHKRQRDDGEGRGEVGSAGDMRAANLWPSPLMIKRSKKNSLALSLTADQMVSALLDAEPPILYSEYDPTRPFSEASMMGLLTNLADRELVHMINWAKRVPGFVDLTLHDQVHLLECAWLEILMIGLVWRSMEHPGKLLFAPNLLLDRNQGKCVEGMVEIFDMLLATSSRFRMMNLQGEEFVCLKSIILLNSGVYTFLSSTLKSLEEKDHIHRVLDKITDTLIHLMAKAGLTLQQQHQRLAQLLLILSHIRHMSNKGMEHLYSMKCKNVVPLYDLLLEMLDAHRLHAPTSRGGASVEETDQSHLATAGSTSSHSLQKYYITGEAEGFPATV
structure (smiles),measurement,setting,value
C[C@H]1CCCC(=O)CCC/C=C/c2cc(O)cc(O)c2C(=O)O1 [zearalenone],"effect on binding of receptor to the ERE fiber, in words",10^−6M compound,increase binding to the ERE more than do the weak biological estrogens
same,Response of ERE fiber to hER and 10^−6M compound (control = 3.51),"S/C value, control = 3.51",5.01
